The target of assay [1] is T1, Tubulin (Homo sapiens) (UniProt P68371+Q9H4B7+P0DPH7+P68366+Q13509+Q71U36+P04350+Q3ZCM7+P07437+P68363+Q9BQE3+Q6PEY2+Q13885+Q9BVA1+Q9BUF5). The assay can be described thus: Binding affinity to microtubules, activity expressed as log 1/ID50 of compound/ID50 of paclitaxel. Type of assay: protein-complex assay.
Assay [2] deals with T1, Tubulin (Homo sapiens). As to the kind of experiment: Binding affinity to microtubules, activity expressed as ID50 of compound/ID50 of paclitaxel. Type of assay: protein-complex assay.

Log 1/ratio and ID50 ratio data for 31 molecules are collected here from ChEMBL document CHEMBL1127973, “A comparative molecular field analysis derived model of the binding of taxol analogues to microtubules” (Bioorg Med Chem Lett, 1994).

For the molecule `CC(=O)O[C@H]1C(=O)[C@@]2(C)[C@H]([C@H](OC(=O)c3ccccc3)[C@]3(O)C[C@H](OC(=O)[C@H](O)[C@@H](NC(=O)CC(C)(C)C)c4ccccc4)C(C)=C1C3(C)C)[C@]1(OC(C)=O)CO[C@@H]1C[C@@H]2O`, the Log 1/ratio in assay [1] was found to be 0.155. Moreover, the ID50 ratio in assay [2] stood at 0.7.
Regarding `CC(=O)O[C@@]12CO[C@@H]1C[C@H](O)[C@@]1(C)C(=O)[C@H](O)C3=C(C)[C@@H](OC(=O)[C@@H](O)Cc4ccccc4)C[C@@](O)([C@@H](OC(=O)c4ccccc4)[C@H]21)C3(C)C`, in assay [1], the Log 1/ratio was -0.544. The ID50 ratio in assay [2] turned out to be 3.5.
On to `CC(=O)O[C@H]1C(=O)[C@@]2(C)[C@H]([C@H](OC(=O)c3ccccc3)[C@]3(O)C[C@H](OC(=O)[C@@H](NC(=O)OC(C)(C)C)[C@H](O)c4ccccc4)C(C)=C1C3(C)C)[C@]1(OC(C)=O)CO[C@@H]1C[C@@H]2O`, for which the Log 1/ratio in assay [1] was -2.03. Moreover, the ID50 ratio in assay [2] is 108.
On the same counts, the results for `CC(=O)O[C@@]12CO[C@@H]1C[C@H](O)[C@@]1(C)C(=O)[C@H](O)C3=C(C)[C@@H](OC(=O)[C@@H](O)[C@H](NC(=O)OC(C)(C)C)c4ccccc4)C[C@@](O)([C@@H](OC(=O)c4ccccc4)[C@H]21)C3(C)C` are -1.48 and 30.
The matching figures for `CC(=O)O[C@@]12CO[C@@H]1C[C@H](O)[C@@]1(C)C(=O)[C@H](O)C3=C(C)[C@@H](OC(=O)/C=C/c4ccccc4)C[C@@](O)([C@@H](OC(=O)c4ccccc4)[C@H]21)C3(C)C`: -1.37 and 23.
Consider `CC(=O)O[C@H]1C(=O)[C@@]2(C)[C@H]([C@H](OC(=O)c3ccccc3)[C@]3(O)C[C@H](OC(=O)[C@H](O)[C@@H](NC(=O)c4ccccc4)c4ccc(O)cc4)C(C)=C1C3(C)C)[C@]1(OC(C)=O)CO[C@@H]1C[C@@H]2O`, for which the Log 1/ratio in assay [1] is 0.0969. Also, the ID50 ratio in assay [2] worked out at 0.8.
Regarding `C/C=C/C(=O)O[C@H]1C[C@@]2(O)[C@@H](OC(=O)c3ccccc3)[C@@H]3[C@]4(OC(C)=O)CO[C@@H]4C[C@H](O)[C@@]3(C)C(=O)[C@H](OC(C)=O)C(=C1C)C2(C)C`, in assay [1], the Log 1/ratio was -2. In addition, in assay [2], the ID50 ratio is 100.
The matching figures for `CC(=O)O[C@H]1C(=O)[C@@]2(C)[C@H]([C@H](OC(=O)c3ccccc3)[C@]3(O)C[C@H](OC(=O)[C@H](O)[C@@H](NC(=O)c4ccccc4)c4ccc(C)cc4)C(C)=C1C3(C)C)[C@]1(OC(C)=O)CO[C@@H]1C[C@@H]2O`: -0.38 and 2.4.
The matching figures for `CC(=O)O[C@@]12CO[C@@H]1C[C@H](O)[C@@]1(C)C(=O)[C@H](O)C3=C(C)[C@@H](OC(=O)CCc4ccccc4)C[C@@](O)([C@@H](OC(=O)c4ccccc4)[C@H]21)C3(C)C`: -1.23 and 17.
As for `CC(=O)O[C@@]12CO[C@@H]1C[C@H](O)[C@@]1(C)C(=O)[C@H](O)C3=C(C)[C@@H](OC(=O)[C@H](O)Cc4ccccc4)C[C@@](O)([C@@H](OC(=O)c4ccccc4)[C@H]21)C3(C)C`, the Log 1/ratio in assay [1] is -0.653. The ID50 ratio in assay [2] amounted to 4.5.
On to `CC(=O)O[C@H]1C(=O)[C@@]2(C)[C@H]([C@H](OC(=O)c3ccccc3)[C@]3(O)C[C@H](OC(=O)[C@H](NC(=O)OC(C)(C)C)[C@@H](O)c4ccccc4)C(C)=C1C3(C)C)[C@]1(OC(C)=O)CO[C@@H]1C[C@@H]2O`, for which the Log 1/ratio in assay [1] was -1. For the same molecule, the ID50 ratio in assay [2] stood at 10.
The matching figures for `CC(=O)O[C@@]12CO[C@@H]1C[C@H](OC(=O)[C@H](O)[C@@H](O)[C@H](O)CO)[C@@]1(C)C(=O)[C@H](O)C3=C(C)[C@@H](OC(=O)[C@H](O)[C@@H](NC(=O)c4ccccc4)c4ccccc4)C[C@@](O)([C@@H](OC(=O)c4ccccc4)[C@H]21)C3(C)C`: 0.222 and 0.6.
Turning to `CC(=O)O[C@H]1C(=O)[C@@]2(C)[C@H]([C@H](OC(=O)c3ccccc3)[C@]3(O)C[C@H](OC(=O)[C@H](O)[C@@H](NC(=O)c4cccc(Cl)c4)c4ccccc4)C(C)=C1C3(C)C)[C@]1(OC(C)=O)CO[C@@H]1C[C@@H]2O`, the Log 1/ratio in assay [1] is -0.301. In addition, in assay [2], the ID50 ratio is 2.
On the same counts, the results for `CC(=O)O[C@@]12CO[C@@H]1C[C@H](O)[C@@]1(C)C(=O)[C@H](O)C3=C(C)[C@@H](OC(=O)[C@@H](NC(=O)c4ccccc4)[C@H](O)c4ccccc4)C[C@@](O)([C@@H](OC(=O)c4ccccc4)[C@H]21)C3(C)C` are -2.23 and 170.
Take `CC(=O)O[C@H]1C(=O)[C@@]2(C)[C@H]([C@H](OC(=O)c3ccccc3)[C@]3(O)C[C@H](OC(=O)[C@@H](O)[C@H](NC(=O)OC(C)(C)C)c4ccccc4)C(C)=C1C3(C)C)[C@]1(OC(C)=O)CO[C@@H]1C[C@@H]2O`: the Log 1/ratio in assay [1] was -1.48. Besides, the ID50 ratio in assay [2] is 30.
On the same counts, the results for `CC(=O)O[C@@H](C(=O)O[C@H]1C[C@@]2(O)[C@@H](OC(=O)c3ccccc3)[C@@H]3[C@]4(OC(C)=O)CO[C@@H]4C[C@H](O)[C@@]3(C)C(=O)[C@H](O)C(=C1C)C2(C)C)[C@@H](NC(=O)OC(C)(C)C)c1ccccc1` are -1.48 and 10.
On the same counts, the results for `CC(=O)O[C@@]12CO[C@@H]1C[C@H](OC(=O)[C@H](N)Cc1ccccc1)[C@@]1(C)C(=O)[C@H](O)C3=C(C)[C@@H](OC(=O)[C@H](O)[C@@H](NC(=O)OC(C)(C)C)c4ccccc4)C[C@@](O)([C@@H](OC(=O)c4ccccc4)[C@H]21)C3(C)C` are 0 and 1.
In the case of `CC(=O)O[C@H]1C(=O)[C@@]2(C)[C@H]([C@H](OC(=O)c3ccccc3)[C@]3(O)C[C@H](OC(=O)[C@H](OC(C)=O)[C@@H](NC(=O)c4ccccc4)c4ccccc4)C(C)=C1C3(C)C)[C@]1(OC(C)=O)CO[C@@H]1C[C@@H]2O`, in assay [1], the Log 1/ratio was -1.48. For the same molecule, the ID50 ratio in assay [2] worked out at 30.
The matching figures for `CC(=O)O[C@H]1C[C@]2(C)[C@@H](O)C[C@H]3OC[C@@]3(OC(C)=O)[C@H]2[C@H](OC(=O)c2ccccc2)[C@@]2(O)C[C@H](OC(=O)[C@H](O)[C@@H](NC(=O)c3ccccc3)c3ccccc3)C(C)C1C2(C)C` (some centres not stated): -0.477 and 3.
On the same counts, the results for `CCCCOC(=O)N[C@@H](c1ccccc1)[C@@H](O)C(=O)O[C@H]1C[C@@]2(O)[C@@H](OC(=O)c3ccccc3)[C@@H]3[C@]4(OC(C)=O)CO[C@@H]4C[C@H](O)[C@@]3(C)C(=O)[C@H](OC(C)=O)C(=C1C)C2(C)C` are 0.0969 and 0.8.
The matching figures for `CC(=O)O[C@H]1C(=O)[C@@]2(C)[C@H]([C@H](OC(=O)c3ccccc3)[C@]3(O)C[C@H](OC(=O)[C@H](O)[C@@H](NC(=O)c4ccc(C)cc4)c4ccccc4)C(C)=C1C3(C)C)[C@]1(OC(C)=O)CO[C@@H]1C[C@@H]2O`: -0.204 and 1.6.
On to `CC(=O)O[C@H]1C(=O)[C@@]2(C)[C@H]([C@H](OC(=O)c3ccccc3)[C@]3(O)C[C@H](OC(=O)[C@H](NC(=O)c4ccccc4)[C@@H](O)c4ccccc4)C(C)=C1C3(C)C)[C@]1(OC(C)=O)CO[C@@H]1C[C@@H]2O`, for which the Log 1/ratio in assay [1] is -1. The ID50 ratio in assay [2] was found to be 10.
In the case of `CC(=O)O[C@H]1C(=O)[C@@]2(C)[C@H]([C@H](OC(=O)c3ccccc3)[C@]3(O)C[C@H](OC(=O)[C@H](O)[C@@H](NC(=O)c4ccc(C(F)(F)F)cc4)c4ccccc4)C(C)=C1C3(C)C)[C@]1(OC(C)=O)CO[C@@H]1C[C@@H]2O`, the Log 1/ratio in assay [1] is -0.778. Further, in assay [2], the ID50 ratio was found to be 6.
On the same counts, the results for `CC(=O)O[C@H]1C(=O)[C@@]2(C)[C@H]([C@H](OC(=O)c3ccccc3)[C@]3(O)C[C@H](OC(=O)[C@H](O)[C@@H](NC(=O)c4ccccc4)c4cccc(Cl)c4)C(C)=C1C3(C)C)[C@]1(OC(C)=O)CO[C@@H]1C[C@@H]2O` are -0.644 and 4.4.
With `CC(=O)O[C@@]12CO[C@@H]1C[C@H](O)[C@@]1(C)C(=O)[C@H](O)C3=C(C)[C@@H](OC(=O)[C@H](O)[C@H](NC(=O)c4ccccc4)c4ccccc4)C[C@@](O)([C@@H](OC(=O)c4ccccc4)[C@H]21)C3(C)C`, in assay [1], the Log 1/ratio is -0.114. Besides, the ID50 ratio in assay [2] came to 1.3.
On the same counts, the results for `CC(=O)O[C@H]1C(=O)[C@@]2(C)[C@H]([C@H](OC(=O)c3ccccc3)[C@]3(O)C[C@H](OC(=O)[C@H](O)[C@@H](N)c4ccccc4)C(C)=C1C3(C)C)[C@]1(OC(C)=O)CO[C@@H]1C[C@@H]2O` are -1.64 and 44.
The matching figures for `CC(=O)O[C@H]1C(=O)[C@]2(C)[C@@H](OC(=O)c3ccccc3)C[C@H]3OC[C@@]3(OC(C)=O)[C@H]2[C@H](OC(=O)c2ccccc2)[C@]2(O)C[C@H](OC(=O)[C@H](O)[C@@H](NC(=O)c3ccccc3)c3ccccc3)C(C)=C1C2(C)C`: -0.23 and 1.7.
For `CC(=O)O[C@H]1C(=O)[C@@]2(C)[C@H]([C@H](OC(=O)c3ccccc3)[C@]3(O)C[C@H](OC(=O)[C@H](O)[C@@H](NC(=O)c4ccccc4)c4ccc(Cl)cc4)C(C)=C1C3(C)C)[C@]1(OC(C)=O)CO[C@@H]1C[C@@H]2O`, the Log 1/ratio in assay [1] is -0.279. The ID50 ratio in assay [2] came to 1.9.
The matching figures for `CC(=O)O[C@@]12CO[C@@H]1C[C@H](O)[C@@]1(C)C(=O)[C@H](O)C3=C(C)[C@@H](OC(=O)[C@@H](O)[C@@H](N)c4ccccc4)C[C@@](O)([C@@H](OC(=O)c4ccccc4)[C@H]21)C3(C)C`: -1.48 and 30.
Regarding `CC(=O)O[C@@]12CO[C@@H]1C[C@H](O)[C@@]1(C)C(=O)[C@H](O)C3=C(C)[C@@H](OC(=O)[C@H](O)[C@H](N)c4ccccc4)C[C@@](O)([C@@H](OC(=O)c4ccccc4)[C@H]21)C3(C)C`, in assay [1], the Log 1/ratio was -1.48. Further, the ID50 ratio in assay [2] turned out to be 30.
The matching figures for `COc1ccc([C@H](NC(=O)c2ccccc2)[C@@H](O)C(=O)O[C@H]2C[C@@]3(O)[C@@H](OC(=O)c4ccccc4)[C@@H]4[C@]5(OC(C)=O)CO[C@@H]5C[C@H](O)[C@@]4(C)C(=O)[C@H](OC(C)=O)C(=C2C)C3(C)C)cc1`: 0.301 and 0.5.
